# US20030069220A1, “METHOD FOR MASS MEDICATION IN BIOLOGICAL ATTACKS” (priority 2001, published 2003)
# What was measured:
# [1] = ampicillin dissolved with 95 mole-% sodium carbonate; or aqueous solution of pre-formed salt; cited from earlier work
# [2] = in vivo; cited from earlier work
# [3] = Dissolution of antibiotic powders (cephalosporin plus citric acid) in water, Example 1; format: physicochemical
# Protocol: The following antibiotic powders were formed without sweeteners and flavorings by addition to clear plastic bags and by working of the bags. The mixtures were added to water in the amounts noted and the conditions of dissolution are noted, as well as the resultant pH or the formed solution. Although Example 1 describes the use of citric acid, various other constituents may be utilized as a […] (e.g., various amino acids).
Compound,pH of aqueous solution [1],absorbed by the body when ingested [2],pH of the formed solution [3],time to form a solution [3]
CC1(C)S[C@@H]2[C@H](NC(=O)[C@H](N)c3ccccc3)C(=O)N2[C@H]1C(=O)O [ampicillin],8.3,–,–,–
"CC1=C(C(=O)O)N2C(=O)[C@@H](NC(=O)[C@H](N)c3ccccc3)[C@H]2SC1 [Cephalexin, αaminobenzyl-3-desacetoxycephalosporin]",–,90%,pH of 3.3.,solution in 5 minutes
CC1(C)S[C@@H]2[C@H](NC(=O)[C@H](N)c3ccccc3)C(=O)N2[C@H]1C(=O)[O-].[Na+] [sodium ampicillin],~9.5,–,–,–
